Experimental data reported in publication PMC6905112, “CtcS, a MarR family regulator, regulates chlortetracycline biosynthesis” (BMC Microbiology, 2019).

Tests used:
[1] = target: T1, CtcS (Kitasatospora aureofaciens, UniProt S4S3A4); assay: competitive EMSA, release of FAM-labelled ctcS-ctcR intergenic DNA probe; assay type: binding; conditions: His6-CtcS 40 ng, probe 40 ng, 20 uL, pH 8.0, 0.0015-5 mM compound
T1 sequence (S4S3A4 1-165): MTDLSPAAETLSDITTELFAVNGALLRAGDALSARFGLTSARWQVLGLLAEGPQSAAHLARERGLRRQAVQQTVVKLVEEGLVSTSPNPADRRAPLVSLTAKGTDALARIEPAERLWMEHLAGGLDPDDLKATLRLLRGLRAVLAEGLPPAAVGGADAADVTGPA

[2] = target: His6-tagged recombinant CtcS (Streptomyces aureofaciens F3); assay: SEC; Superdex 200 10/300 column, AKTA FPLC P-920; ovalbumin (44 kD) and lysozyme (14 kD) as standards; purified His6-tagged CtcS

stoichiometry N [2] | Compound | competitive EMSA, release of FAM-labelled ctcS-ctcR intergenic DNA probe [1]
– | CN(C)[C@@H]1C(=O)C(C(N)=O)=C(O)[C@@]2(O)C(=O)C3=C(O)c4c(O)ccc(Cl)c4[C@@](C)(O)[C@H]3C[C@@H]12 [chlortetracycline] | the DNA-binding affinity of CtcS would be decreased by the presence of TC and CTC
– | CN(C)[C@@H]1C(=O)C(C(N)=O)=C(O)[C@@]2(O)C(=O)C3=C(O)c4c(O)cccc4[C@@](C)(O)[C@H]3C[C@@H]12 [tetracycline] | the DNA-binding affinity of CtcS would be decreased by the presence of TC and CTC
2 | His6-tagged recombinant CtcS (natural protein) | –
